Source: patent publication US9434711B2 (Janssen Pharmaceutica, NV, priority 2007, dated 2016)

Molecular target: canine TRPM8 (Canis lupus familiaris, UniProt Q1A7N1)
Test: In Vitro Canine TRPM8 Functional Assay (Ca2+ fluorescence, icilin activation)
Assay type: cell-based
Conditions: for IC50: HEK293 cells stably expressing canine TRPM8, icilin activation, eight-point dose-response, read-out: IC50; for inhibition at 0.2 µM: read-out: % Inh @ 0.2
Method in brief: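 Eight-point dose-response curves, each point averaging quadruplicate wells, gave EC50 or IC50. Canine TRPM8-expressing HEK293 cells, dye-loaded (Calcium 3), were pre-exposed 5 min to compound, then challenged with icilin at roughly EC80; intracellular Ca2+ read by FLIPR or FDSS fluorescence.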

[1] = compound at 0.2 μM, canine TRPM8, icilin activation

Chain of canine TRPM8 (Q1A7N1 1-1104): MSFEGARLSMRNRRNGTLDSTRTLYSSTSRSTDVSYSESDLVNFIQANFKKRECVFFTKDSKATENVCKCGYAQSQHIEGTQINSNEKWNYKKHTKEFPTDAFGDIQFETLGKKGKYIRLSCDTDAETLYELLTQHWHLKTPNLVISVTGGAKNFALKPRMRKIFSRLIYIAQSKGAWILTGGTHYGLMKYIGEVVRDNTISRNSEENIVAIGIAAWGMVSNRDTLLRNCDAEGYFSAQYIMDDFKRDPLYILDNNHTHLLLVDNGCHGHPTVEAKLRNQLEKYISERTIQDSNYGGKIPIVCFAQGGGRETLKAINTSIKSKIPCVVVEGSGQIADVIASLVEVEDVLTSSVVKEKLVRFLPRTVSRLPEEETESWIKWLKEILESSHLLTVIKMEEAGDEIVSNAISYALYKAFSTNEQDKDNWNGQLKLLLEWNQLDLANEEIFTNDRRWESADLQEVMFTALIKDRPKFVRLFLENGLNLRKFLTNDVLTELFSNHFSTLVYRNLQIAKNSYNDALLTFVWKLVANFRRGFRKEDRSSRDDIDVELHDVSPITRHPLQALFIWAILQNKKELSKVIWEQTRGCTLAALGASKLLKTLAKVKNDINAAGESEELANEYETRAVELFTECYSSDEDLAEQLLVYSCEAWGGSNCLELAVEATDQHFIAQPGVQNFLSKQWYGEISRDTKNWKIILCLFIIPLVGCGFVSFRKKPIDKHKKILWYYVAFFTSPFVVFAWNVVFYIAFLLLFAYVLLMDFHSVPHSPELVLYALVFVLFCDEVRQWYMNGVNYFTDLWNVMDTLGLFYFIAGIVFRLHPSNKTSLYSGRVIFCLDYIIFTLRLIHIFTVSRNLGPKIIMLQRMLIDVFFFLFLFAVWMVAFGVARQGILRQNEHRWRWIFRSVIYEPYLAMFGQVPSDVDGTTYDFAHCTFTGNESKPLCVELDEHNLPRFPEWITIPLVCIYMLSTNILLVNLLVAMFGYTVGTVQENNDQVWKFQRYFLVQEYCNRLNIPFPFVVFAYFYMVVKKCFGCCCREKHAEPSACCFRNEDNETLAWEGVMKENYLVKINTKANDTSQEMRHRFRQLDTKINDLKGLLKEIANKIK

What does the source list for `O=c1[nH]c(-c2ccc(S(=O)(=O)N(CCC3CC3)c3sc4ccccc4c3Br)cc2)ns1` [Compound 706, N-(3-Bromo-benzo[b]thiophen-2-yl)-N-(cyclopropyl-ethyl)-4-(5-oxo-4,5-dihydro-[1,2,4]thiadiazol-3-yl)-benzenesulfonamide]?
IC50: 14 nM; inhibition at 0.2 µM [1]: 102%

How did the IC50 turn out when `O=C(O)c1ccc(S(=O)(=O)N(CCCCC(F)(F)F)c2sc3ccccc3c2Br)c(F)c1` [Compound 707, N-(3-Bromo-benzo[b]thiophen-2-yl)-N-(5,5,5-trifluoro-pentyl)-2-fluoro-4-carboxy-benzenesulfonamide] was run?
Its IC50 is 3 nM.

And the inhibition at 0.2 µM [1]?
The inhibition at 0.2 µM was 102%.

What does the source list for `O=c1[nH]c(-c2ccc(S(=O)(=O)N(CCC(F)(F)F)c3sc4ccccc4c3Br)cc2)ns1` [Compound 708, N-(3-Bromo-benzo[b]thiophen-2-yl)-N-(3,3,3-trifluoro-propyl)-4-(5-oxo-4,5-dihydro-[1,2,4]thiadiazol-3-yl)-benzenesulfonamide]?
IC50: 13 nM; inhibition at 0.2 µM [1]: 102%

What does the source list for `O=C(O)c1ccc(S(=O)(=O)N(CCC2CC2)c2sc3ccccc3c2Br)c(F)c1` [Compound 709, N-(3-Bromo-benzo[b]thiophen-2-yl)-N-(2-cyclopropyl-ethyl)-2-fluoro-4-carboxy-benzenesulfonamide]?
IC50: 6 nM; inhibition at 0.2 µM [1]: 102%

`O=C(O)c1ccc(S(=O)(=O)N(CCC(F)(F)F)c2sc3ccccc3c2Br)c(F)c1` [Compound 710, N-(3-Bromo-benzo[b]thiophen-2-yl)-N-(3,3,3-trifluoro-propyl)-2-fluoro-4-carboxy-benzenesulfonamide] was tested. Which IC50 did it give?
Its IC50 is 7 nM.

What about the inhibition at 0.2 µM [1] of the same molecule?
Its inhibition at 0.2 µM is 102%.

Which results are given for `O=C(O)c1ccc(S(=O)(=O)N(Cc2ccc(F)c(C(F)(F)F)c2)c2sc3ccccc3c2Br)c(F)c1` [Compound 711, N-(3-Bromo-benzo[b]thiophen-2-yl)-N-(4-fluoro-3-trifluoromethyl-benzyl)-2-fluoro-4-carboxy-benzenesulfonamide]?
IC50: 2 nM; inhibition at 0.2 µM [1]: 102%

`O=c1[nH]c(-c2ccc(S(=O)(=O)N(CCCCC(F)(F)F)c3sc4ccccc4c3Br)cc2)ns1` [Compound 712, N-(3-Bromo-benzo[b]thiophen-2-yl)-N-(5,5,5-trifluoro-pentyl)-4-(5-oxo-4,5-dihydro-[1,2,4]thiadiazol-3-yl)-benzenesulfonamide] was tested. Which IC50 did it give?
Its IC50 is 4 nM.

And the inhibition at 0.2 µM [1]?
The inhibition at 0.2 µM was 102%.

`CS(=O)(=O)Nc1cccc(S(=O)(=O)N(CCC(F)(F)F)c2cc3ccccc3s2)c1` [Compound 713, N-(Benzo[b]thiophen-2-yl)-3-methanesulfonylamino-N-(3,3,3-trifluoro-propyl)-benzenesulfonamide] was tested. Which inhibition at 0.2 µM [1] did it give?
The inhibition at 0.2 µM was 47%.

How did the IC50 turn out when `CS(=O)(=O)Nc1cccc(S(=O)(=O)N(CCC(F)(F)F)c2sc3ccccc3c2Cl)c1` [Compound 714, N-(3-Chloro-benzo[b]thiophen-2-yl)-3-methanesulfonylamino-N-(3,3,3-trifluoro-propyl)-benzenesulfonamide] was run?
Its IC50 is 29 nM.

What about the inhibition at 0.2 µM [1] of the same molecule?
Its inhibition at 0.2 µM is 96%.

Which IC50 does the source give for `CS(=O)(=O)Nc1cccc(S(=O)(=O)N(CCC(F)(F)F)c2sc3ccccc3c2Br)c1` [Compound 715, N-(3-Bromo-benzo[b]thiophen-2-yl)-3-methanesulfonylamino-N-(3,3,3-trifluoro-propyl)-benzenesulfonamide] here?
The IC50 was 24 nM.

And the inhibition at 0.2 µM [1]?
The inhibition at 0.2 µM was 101%.

How did the IC50 turn out when `CS(=O)(=O)Nc1ccc(S(=O)(=O)N(CCC2CC2)c2sc3ccccc3c2Cl)cc1` [Compound 716, N-(3-Chloro-benzo[b]thiophen-2-yl)-N-(2-cyclopropyl-ethyl)-4-methanesulfonylamino-benzenesulfonamide] was run?
Its IC50 is 9 nM.

What about the inhibition at 0.2 µM [1] of the same molecule?
Its inhibition at 0.2 µM is 101%.

`CS(=O)(=O)Nc1ccc(S(=O)(=O)N(CCC2CC2)c2sc3ccccc3c2Br)cc1` [Compound 717, N-(3-Bromo-benzo[b]thiophen-2-yl)-N-(2-cyclopropyl-ethyl)-4-methanesulfonylamino-benzenesulfonamide] was tested. Which IC50 did it give?
Its IC50 is 5 nM.

And the inhibition at 0.2 µM [1]?
Its inhibition at 0.2 µM is 102%.

How did the IC50 turn out when `O=S(=O)(Nc1ccc(S(=O)(=O)N(CCC2CC2)c2sc3ccccc3c2Cl)cc1)C1CC1` [Compound 718, N-(3-Chloro-benzo[b]thiophen-2-yl)-4-cyclopropanesulfonylamino-N-(2-cyclopropyl-ethyl)-benzenesulfonamide] was run?
Its IC50 is 39 nM.

And the inhibition at 0.2 µM [1]?
The inhibition at 0.2 µM was 96%.

`O=S(=O)(Nc1ccc(S(=O)(=O)N(CCC2CC2)c2sc3ccccc3c2Br)cc1)C1CC1` [Compound 719, N-(3-Bromo-benzo[b]thiophen-2-yl)-4-cyclopropanesulfonylamino-N-(2-cyclopropyl-ethyl)-benzenesulfonamide] was tested. Which IC50 did it give?
Its IC50 is 23 nM.

What about the inhibition at 0.2 µM [1] of the same molecule?
Its inhibition at 0.2 µM is 100%.

`Cc1c(N(CCCCC(F)(F)F)S(=O)(=O)c2nc3ccccc3[nH]2)sc2ccccc12` [Compound 720, N-(3-Methyl-benzo[b]thiophen-2-yl)-N-(5,5,5-trifluoro-pentyl)-1H-benzimidazole-2-sulfonamide] was tested. Which inhibition at 0.2 µM [1] did it give?
Its inhibition at 0.2 µM is 52%.

For `Cc1c(N(CCCCC(F)(F)F)S(=O)(=O)c2cccc3nccnc23)sc2ccccc12` [Compound 721, N-(3-Methyl-benzo[b]thiophen-2-yl)-N-(5,5,5-trifluoro-pentyl)-quinoxalin-5-yl-sulfonamide], which IC50 is on record?
The IC50 was 4.2 nM.

And the inhibition at 0.2 µM [1]?
Its inhibition at 0.2 µM is 102%.

Which inhibition at 0.2 µM [1] does the source give for `Cc1c(N(Cc2ccc(F)c(C(F)(F)F)c2)S(=O)(=O)c2nc3ccccc3n2C)sc2ccccc12` [Compound 722, N-(3-Methyl-benzo[b]thiophen-2-yl)-N-(4-fluoro-3-trifluoromethyl-benzyl)-1-methyl-1H-benzimidazole-2-sulfonamide] here?
Its inhibition at 0.2 µM is 28%.

What does the source list for `Cc1c(N(Cc2ccc(F)c(C(F)(F)F)c2)S(=O)(=O)c2cccc3nccnc23)sc2ccccc12` [Compound 723, N-(3-Methyl-benzo[b]thiophen-2-yl)-N-(4-fluoro-3-trifluoromethyl-benzyl)-quinoxalin-5-yl-sulfonamide]?
IC50: 18 nM; inhibition at 0.2 µM [1]: 102%

With `Cc1c(N(Cc2ccc(F)c(C(F)(F)F)c2)S(=O)(=O)CCC=O)sc2ccccc12` [Compound 724, N-(4-Fluoro-3-trifluoromethyl-benzyl)-N-(3-methyl-benzo[b]thiophen-2-yl)-3-oxo-propane-1-sulfonamide] as the molecule, how does the IC50 read?
Its IC50 is 5.3 nM.

And the inhibition at 0.2 µM [1]?
Its inhibition at 0.2 µM is 102%.

Which IC50 does the source give for `Cc1c(N(Cc2ccc(F)c(C(F)(F)F)c2)S(=O)(=O)CCC(C)(C)O)sc2ccccc12` [Compound 725, N-(4-Fluoro-3-trifluoromethyl-benzyl)-N-(3-methyl-benzo[b]thiophen-2-yl)-3-hydroxy-3-methyl-butane-1-sulfonamide] here?
The IC50 was 7.8 nM.

And the inhibition at 0.2 µM [1]?
Its inhibition at 0.2 µM is 102%.

With `Cc1c(N(CCC2CC2)S(=O)(=O)c2nc3ccccc3[nH]2)sc2ccccc12` [Compound 726, N-(Cyclopropyl-ethyl)-N-(3-methyl-benzo[b]thiophen-2-yl)-1H-benzimidazole-2-sulfonamide] as the molecule, how does the IC50 read?
Its IC50 is 90.3 nM.

And the inhibition at 0.2 µM [1]?
Its inhibition at 0.2 µM is 69%.

`Cc1c(N(CCCCC(F)(F)F)S(=O)(=O)c2nc3ccccc3[nH]2)sc2ccccc12` [Compound 727, N-(3-Methyl-benzo[b]thiophen-2-yl)-N-(5,5,5,-trifluoro-pentyl)-1H-benzimidazole-2-sulfonamide] was tested. Which “% Inh @ 0.2 (μM)” value [1] did it give?
The value was 16%.

`Cc1c(N(Cc2ccc(F)c(C(F)(F)F)c2)S(=O)(=O)c2nc3ccccc3[nH]2)sc2ccccc12` [Compound 728, N-(3-Methyl-benzo[b]thiophen-2-yl)-N-(4-fluoro-3-trifluoromethyl-benzyl)-1H-benzimidazole-2-sulfonamide] was tested. Which inhibition at 0.2 µM [1] did it give?
The inhibition at 0.2 µM was 44%.

For `Cc1c(N(Cc2ccc(OC(F)(F)F)cc2)S(=O)(=O)c2nc3ccccc3[nH]2)sc2ccccc12` [Compound 729, N-(3-Methyl-benzo[b]thiophen-2-yl)-N-(4-trifluoromethoxy-benzyl)-1H-benzimidazole-2-sulfonamide], which inhibition at 0.2 µM [1] is on record?
The inhibition at 0.2 µM was 75%.

Which IC50 does the source give for `CC(=O)c1c(N(Cc2ccc(F)cc2)S(=O)(=O)c2ccc(Br)cc2)sc2ccccc12` [Compound 730, N-(3-Acetyl-benzo[b]thiophen-2-yl)-4-bromo-N-(4-fluoro-benzyl)benzene-sulfonamide] here?
The IC50 was 23.6 nM.

What about the inhibition at 0.2 µM [1] of the same molecule?
Its inhibition at 0.2 µM is 100%.

What does the source list for `CC(=O)c1c(N(Cc2ccc(OC(F)(F)F)cc2)S(=O)(=O)c2ccc(Br)cc2)sc2ccccc12` [Compound 731, N-(3-Acetyl-benzo[b]thiophen-2-yl)-4-bromo-N-(4-(trifluoromethoxy)-benzyl)benzenesulfonamide]?
IC50: 44.4 nM; inhibition at 0.2 µM [1]: 87%

How did the IC50 turn out when `CC(=O)c1c(N(Cc2ccccc2)S(=O)(=O)c2ccc(Br)cc2)sc2ccccc12` [Compound 732, N-(3-Acetyl-benzo[b]thiophen-2-yl)-N-(benzyl)-4-bromobenzenesulfonamide] was run?
Its IC50 is 13.3 nM.

What about the inhibition at 0.2 µM [1] of the same molecule?
Its inhibition at 0.2 µM is 100%.

Which results are given for `CC(=O)c1c(N(Cc2ccc(F)c(Cl)c2)S(=O)(=O)c2ccc(Br)cc2)sc2ccccc12` [Compound 733, N-(3-Acetyl-benzo[b]thiophen-2-yl)-4-bromo-N-(3-chloro-4-fluoro-benzyl)benzenesulfonamide]?
IC50: 13.4 nM; inhibition at 0.2 µM [1]: 100%

For `CC(C)(O)c1c(N(Cc2ccc(F)cc2)S(=O)(=O)c2ccc(Br)cc2)sc2ccccc12` [Compound 734, N-(4-Fluorobenzyl)-N-(3-(1-hydroxy-1-methyl-ethyl)-benzo[b]thiophen-2-yl)-4-bromo-benzenesulfonamide], which IC50 is on record?
The IC50 was 9.7 nM.

And the inhibition at 0.2 µM [1]?
The inhibition at 0.2 µM was 102%.

Which IC50 does the source give for `CC(C)(O)c1c(N(Cc2ccc(OC(F)(F)F)cc2)S(=O)(=O)c2ccc(Br)cc2)sc2ccccc12` [Compound 735, N-(3-(1-Hydroxy-1-methyl-ethyl)-benzo[b]thiophen-2-yl)-N-(4-trifluoromethoxybenzyl)-4-bromo-benzenesulfonamide] here?
The IC50 was 26.8 nM.

And the inhibition at 0.2 µM [1]?
Its inhibition at 0.2 µM is 101%.

`CC(C)(O)c1c(N(Cc2ccccc2)S(=O)(=O)c2ccc(Br)cc2)sc2ccccc12` [Compound 736, N-(Benzyl)-N-(3-(1-hydroxy-1-methyl-ethyl)-benzo[b]thiophen-2-yl)-4-bromo-benzenesulfonamide] was tested. Which IC50 did it give?
The IC50 was 17.2 nM.

And the inhibition at 0.2 µM [1]?
Its inhibition at 0.2 µM is 101%.
